From US20220202897A1, “USE OF CYCLO(HIS-PRO) (CHP) FOR PREVENTING, AMELIORATING, OR TREATING FIBROSIS” (NOVMETAPHARMA CO., LTD., priority 2019, published 2022)

Assays:
[1] = system: Huh7 liver cell line; test: Fibronectin protein expression (Western blot) in a human-derived hepatocyte fibrosis model; assay type: cell-based; conditions: Huh7 cells; TGFβ 2 ng/ml with CHP 250 ng/ml; 48 hours; corrected by GAPDH; FIG. 5
Method: (§1) DMEM medium and FBS were purchased from Hyclone for culturing the Huh7 liver cell line, and TGFβ for inducing fibrosis was purchased from R&D Systems. The cells were cultured in a DMEM medium supplemented with 10% FBS in a 5% CO2 incubator at 37° C., treated with TGFβ at a concentration of 2 ng/ml and treated with CHP at 0, 62.5, 125, or 250 ng/ml, and cells were harvested at 48 hours of treatment.
RIPA lysis buffer and Halt™ protease and phosphatase inhibitor cocktails was purchased from Thermo to analyze the expression of fibronectin protein, a fibrotic protein, and for protein quantification, BCA protein quantification kit was purchased from Thermo. […] The supernatant was collected, and the protein concentration was measured by BCA quantitation, and the protein was separated from the same amount of samples using the Bolt™ protein gel electrophoresis system, and transferred to a nitrocellulose membrane. […] After washing 3 times for 10 minutes with TBST, the expression level was measured by reacting with ECL. The size of the appearing band was quantified using the ImageJ program and corrected by dividing the fibronectin band size value by the GAPDH band size value. Statistical significance was analyzed using Student's t-test statistical method with the control group. #p<0.05 (negative control group: TGFβ treated control group).

[2] = system: human-derived proximal tubular epithelial cells; test: Cytological morphology after CHP treatment in a human-derived proximal tubular epithelial cell fibrosis model (TGFβ-induced); assay type: cell-based; conditions: recombinant TGFβ 2 ng/ml; CHP 4, 20 and 100 μg/ml; FIG. 2
[3] = system: animal model of fat fibrosis; test: Fibrosis marker gene expression (real-time PCR) in epididymal adipose tissue of a high-fat-diet animal model of fat fibrosis; assay type: in vivo, C57BL/6 mice; conditions: high-fat diet mice; CHP 5 and 35 mg/kg orally once a day for 16 weeks; corrected by GAPDH; FIG. 11
Method: (§2) For liver fibrosis experiments in animals, 12-week-old C57BL/6 mice fed a high-fat diet containing 60% fat for 6 weeks were purchased from Jackson, USA, and Research diets D12492, a 60% fat-containing high-fat dietary feed purchased from Saeron Bio, were ingested for 17 weeks. Mice were bred to allow free access to feed and water in an environment of 24±3° C. C57BL/6 mice fed a high-fat diet for 6 weeks were acclimatized to the breeding environment for 1 week, and their weights were measured and evenly divided into 3 groups as shown in Table 1. CHP was orally administered to each group at a concentration of 5 mg/kg or 35 mg/kg once a day for 16 weeks, and the same amount of distilled water was orally administered to the control group in the same manner.
For fat fibrosis experiments in animals, an animal model of fat fibrosis was established in the same manner as in Example 4-1.
(§3) Isoflurane required for anesthesia and dissection of mice was purchased from Hana Pharmaceutical, and Vetequip's RC2 Rodent Circuit Controller Anesthesia System was prepared. Phosphate buffered saline (PBS) was purchased from Hyclone. To isolate the mouse adipose tissue, the mice were anesthetized by respiratory anesthesia with 3-3.5% isoflurane. After blood was drawn from the heart of the anesthetized mice, the epididymal adipose tissue (EAT) was immediately excised, 100 mg of the fat was cut out, and RNA extraction and gene expression analysis were performed in the same manner as in Example 6-2. The expression value of each gene was corrected by dividing by the expression value of GAPDH, a housekeeping gene.
Statistical significance was analyzed using one-way ANOVA statistical analysis, and the Dunnett post hoc test was used to compare the significance with the control group (*p<0.05, **p<0.01).

[4] = system: L-132 lung cell line; test: Fibronectin protein expression (Western blot) in a human-derived lung cell fibrosis model; assay type: cell-based; conditions: L-132 cells; TGFβ 2 ng/ml with CHP 125 ng/ml; 48 hours; p<0.01 vs TGFβ-treated control; FIG. 7
Method: as §1, with “MEM” for “DMEM”, “L-132 lung” for “Huh7 liver”, “62.5,” for “62.5, 125,”, “125” for “250”
(§4) Western blotting was performed in the same manner as in Example 3-2 to analyze the expression of fibronectin protein, a fibrotic protein. Statistical significance was analyzed using Student's t-test statistical method with the control (#p<0.05 (negative control group: TGFβ-treated control group), **p<0.01 (TGFβ-treated control group: CHP 125 ng/ml-treated group)).

[5] = system: animal model of liver fibrosis; test: Fibronectin protein expression (Western blot) in liver tissue of a high-fat-diet animal model of liver fibrosis; assay type: in vivo, C57BL/6 mice; conditions: 60% fat high-fat diet mice; CHP 5 or 35 mg/kg orally once a day for 16 weeks; vs HFD control; effect stronger according to the concentration; FIG. 6
Method: as §2
Isoflurane required for anesthesia and dissection of mice was purchased from Hana Pharmaceutical, and Vetequip's RC2 Rodent Circuit Controller Anesthesia System was prepared. Phosphate buffered saline (PBS) was purchased from Hyclone. To isolate the mouse liver tissue, the mice were anesthetized by respiratory anesthesia with 3-3.5% isoflurane. After blood was drawn from the heart of anesthetized mice, the liver tissue was immediately excised and washed with PBS. […] Statistical significance was analyzed using the Student's t-test statistical method with HFD control group (*p<0.05, **p<0.01).

[6] = system: animal model of pulmonary fibrosis; test: TGFβ and Collagen 3 gene expression (real-time PCR) in lung tissue of a high-fat-diet animal model of pulmonary fibrosis; assay type: in vivo, C57BL/6 mice; conditions: high-fat diet mice; CHP 5 and 35 mg/kg orally once a day for 16 weeks; corrected by GAPDH; FIG. 8
[7] = system: human-derived proximal tubular epithelial cells; test: Western blot of E-cadherin, fibronectin and pSTAT3 proteins in the human-derived proximal tubular epithelial cell fibrosis model; assay type: cell-based; conditions: TGFβ 2 ng/ml, CHP 4, 20 and 100 μg/ml, FIG. 3
From the text: Under the same conditions as in Example 1-2, the expression levels of proteins of E-cadherin, a junction marker, fibronectin, a fibrosis marker, and pSTAT3, a fibrosis transcription factor, after CHP administration were checked by Western blot.

[8] = system: HS68 skin fibroblast-derived cell line; test: Fibronectin protein expression (Western blot) in a human-derived skin cell fibrosis model; assay type: cell-based; conditions: HS68 cells; TGFβ 2 ng/ml with CHP 500 ng/ml; 48 hours; p<0.05 vs TGFβ-treated control; FIG. 9
Method: as §1, with “HS68 skin fibroblast-derived” for “Huh7 liver”, “125, 250,” for “125,”, “500” for “250”
as §4, with “*p<0.05” for “**p<0.01”, “500” for “125”

[9] = system: animal model of cardiac fibrosis; test: Fibrosis marker gene expression (real-time PCR) in heart tissue of a high-fat-diet animal model of cardiac fibrosis; assay type: in vivo, C57BL/6 mice; conditions: high-fat diet mice; CHP 5 and 35 mg/kg orally once a day for 16 weeks; corrected by β-actin; no further decrease with concentration; FIG. 10
Method: as §2
For cardiac fibrosis experiments in animals, an animal model of cardiac fibrosis was established in the same manner as in Example 4-1.
as §3, with “heart” for “adipose”, “heart” for “epididymal adipose”, “tissue” for “tissue (EAT)”, “50” for “100”, “heart” for “fat”, “(β-actin,” for “GAPDH,”
Statistical significance was analyzed using one-way ANOVA statistical analysis, and the Dunnett post hoc test was used to compare the significance with the HFD control group (*p<0.05, **p<0.01, ****p<0.0001).

[10] = system: human-derived glomerular endothelial cells; test: Cytological morphology after CHP treatment in a human-derived glomerular endothelial cell fibrosis model (rTGFβ-induced); assay type: cell-based; conditions: rTGFβ 2 ng/ml; CHP 40 and 100 μg/ml; FIG. 4

Structure (SMILES): O=C1N[C@@H](Cc2cnc[nH]2)C(=O)N2CCC[C@@H]12 [CHP, Cyclo-HisPro]
- expression level of fibronectin protein [1]: showed a tendency to decrease
- cytomorphological fibrosis (cytoskeletal remodeling and morphological changes) [2]: fibrosis was improved
- expression of CTGF gene in fat (epididymal adipose tissue) [3]: markedly reduced
- expression of Collagen 3 gene in fat (epididymal adipose tissue) [3]: markedly reduced
- expression of Fibronectin gene in fat (epididymal adipose tissue) [3]: markedly reduced
- expression of TGFβ gene in fat (epididymal adipose tissue) [3]: markedly reduced
- expression level of fibronectin protein [4]: significantly decreased
- expression level of fibronectin protein in liver tissue [5]: significantly decreased
- expression of Collagen 3 gene in lung [6]: decreased more significantly according to the CHP administration concentration
- expression of TGFβ gene in lung [6]: decreased more significantly according to the CHP administration concentration
- protein expression of E-cadherin (junction marker) [7]: restored
- protein expression of fibronectin (fibrosis marker) [7]: decreased
- protein expression of pSTAT3 (fibrosis transcription factor) [7]: decreased
- expression level of fibronectin protein [8]: significantly decreased
- expression of Collagen 1 gene in heart [9]: significantly reduced
- expression of Collagen 3 gene in heart [9]: significantly reduced
- expression of Collagen 4 gene in heart [9]: significantly reduced
- expression of Fibronectin gene in heart [9]: significantly reduced
- expression of TGFβ gene in heart [9]: significantly reduced
- cytomorphological fibrosis (cytoskeletal remodeling and morphological changes) [10]: fibrosis was improved
